Assay results from ChEMBL document CHEMBL1201862, “PubChem BioAssay data set” (2004).
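Exposure lasted 48 hours, with cells grown in 96-well plates and compounds tested at five concentrations. Abbreviation: GI50, concentration required for 50% inhibition of growth.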 Active and inactive are the calls of the source. Rule as the data show it: active = GI50 up to about 1.1 µM and inactive = higher.

Key:
Assay in all cases: growth of human tumour cells (NCI), 48 h
MCF7 = tested on: MCF7
NCI-H522 = tested on: NCI-H522
HT-29 = tested on: HT-29
OVCAR-4 = tested on: OVCAR-4
MDA-N = tested on: MDA-N
MDA-MB-435 = tested on: MDA-MB-435
SNB-19 = tested on: SNB-19
SK-OV-3 = tested on: SK-OV-3
OVCAR-3 = tested on: OVCAR-3
CAKI-1 = tested on: CAKI-1
OVCAR-5 = tested on: OVCAR-5
K562 = tested on: K562
NCI-H226 = tested on: NCI-H226
OVCAR-8 = tested on: OVCAR-8
SK-MEL-2 = tested on: SK-MEL-2
HOP-62 = tested on: HOP-62
BT-549 = tested on: BT-549
786-0 = tested on: 786-0
KM12 = tested on: KM12
SF-539 = tested on: SF-539

COC1/C=C\C=C(/C)C(=O)NC2=CC(=O)C(N)=C(CC(C)CC(OC)C(O)C(C)C=C(C)C1OC(N)=O)C2=O (configuration not stated)
GI50 (MCF7): 0.0416 µM (active)
GI50 (NCI-H522): 0.0234 µM (active)
GI50 (HT-29): < 0.01 µM (active)
GI50 (OVCAR-4): 4.07 µM (inactive)
GI50 (MDA-N): < 0.0171 µM (active)
GI50 (MDA-MB-435): < 0.0191 µM (active)
GI50 (SNB-19): 0.0424 µM (active)
GI50 (SK-OV-3): < 0.0123 µM (active)
GI50 (OVCAR-3): 0.0681 µM (active)
GI50 (CAKI-1): 0.977 µM (active)
GI50 (OVCAR-5): 0.375 µM (active)
GI50 (K562): 0.0204 µM (active)
GI50 (NCI-H226): 5.87 µM (inactive)
GI50 (OVCAR-8): < 0.0203 µM (active)
GI50 (SK-MEL-2): < 0.01 µM (active)
GI50 (HOP-62): < 0.0199 µM (active)
GI50 (BT-549): 11.8 µM (inactive)
GI50 (786-0): 0.368 µM (active)
GI50 (KM12): 0.0244 µM (active)

FC1(F)SC2CCCCCCCCCCC2C1(F)F (configuration not stated)
GI50 (MCF7): 20.2 µM (inactive)
GI50 (NCI-H522): 21.8 µM (inactive)
GI50 (HT-29): 29.7 µM (inactive)
GI50 (OVCAR-4): 22.1 µM (inactive)
GI50 (MDA-N): 37.6 µM (inactive)
GI50 (MDA-MB-435): 28.3 µM (inactive)
GI50 (SNB-19): > 100 µM (inactive)
GI50 (SK-OV-3): 61.7 µM (inactive)
GI50 (OVCAR-3): 18.5 µM (inactive)
GI50 (CAKI-1): 59.6 µM (inactive)
GI50 (OVCAR-5): 47.5 µM (inactive)
GI50 (K562): 15.3 µM (inactive)
GI50 (NCI-H226): 33.3 µM (inactive)
GI50 (OVCAR-8): 40.9 µM (inactive)
GI50 (SK-MEL-2): 18.2 µM (inactive)
GI50 (HOP-62): 38.6 µM (inactive)
GI50 (BT-549): 44 µM (inactive)
GI50 (786-0): 56.4 µM (inactive)

CN1CC2=C(N=C(S)NC2c2ccc(Cl)cc2)/C(=C/c2ccc(Cl)cc2)C1 (configuration not stated)
GI50 (MCF7): 22 µM (inactive)
GI50 (NCI-H522): 15.5 µM (inactive)
GI50 (HT-29): 16.2 µM (inactive)
GI50 (MDA-N): 19.7 µM (inactive)
GI50 (MDA-MB-435): 14.9 µM (inactive)
GI50 (SNB-19): > 10 µM (inactive)
GI50 (SK-OV-3): 17.3 µM (inactive)
GI50 (OVCAR-3): 15.3 µM (inactive)
GI50 (CAKI-1): 18.3 µM (inactive)
GI50 (OVCAR-5): 15.8 µM (inactive)
GI50 (K562): 12.6 µM (inactive)
GI50 (NCI-H226): > 10 µM (inactive)
GI50 (SF-539): 25.9 µM (inactive)
GI50 (OVCAR-8): 17.5 µM (inactive)
GI50 (SK-MEL-2): 13.3 µM (inactive)
GI50 (HOP-62): 19.2 µM (inactive)
GI50 (BT-549): 20.4 µM (inactive)
GI50 (786-0): 24.4 µM (inactive)
GI50 (KM12): 18.5 µM (inactive)

O=C1CSC(=S)N1c1ccc(F)cc1F
GI50 (MCF7): 21.7 µM (inactive)
GI50 (NCI-H522): 18 µM (inactive)
GI50 (HT-29): 90.8 µM (inactive)
GI50 (OVCAR-4): 49.2 µM (inactive)
GI50 (MDA-N): 36.3 µM (inactive)
GI50 (MDA-MB-435): 35.6 µM (inactive)
GI50 (SNB-19): 76.6 µM (inactive)
GI50 (SK-OV-3): > 100 µM (inactive)
GI50 (OVCAR-3): 41.3 µM (inactive)
GI50 (CAKI-1): 45.3 µM (inactive)
GI50 (NCI-H226): > 100 µM (inactive)
GI50 (SF-539): 38.7 µM (inactive)
GI50 (OVCAR-8): 58.3 µM (inactive)
GI50 (SK-MEL-2): 61.2 µM (inactive)
GI50 (HOP-62): > 100 µM (inactive)
GI50 (BT-549): 39.6 µM (inactive)
GI50 (786-0): > 100 µM (inactive)
GI50 (KM12): > 100 µM (inactive)

COc1cc(/C=C/C(C)=O)ccc1OP(=O)(O)O
GI50 (MCF7): > 100 µM (inactive)
GI50 (NCI-H522): > 100 µM (inactive)
GI50 (HT-29): > 100 µM (inactive)
GI50 (OVCAR-4): > 100 µM (inactive)
GI50 (MDA-N): > 100 µM (inactive)
GI50 (MDA-MB-435): > 100 µM (inactive)
GI50 (SNB-19): > 100 µM (inactive)
GI50 (SK-OV-3): > 100 µM (inactive)
GI50 (OVCAR-3): > 100 µM (inactive)
GI50 (CAKI-1): > 100 µM (inactive)
GI50 (OVCAR-5): > 100 µM (inactive)
GI50 (NCI-H226): > 100 µM (inactive)
GI50 (SF-539): > 100 µM (inactive)
GI50 (OVCAR-8): > 100 µM (inactive)
GI50 (SK-MEL-2): > 100 µM (inactive)
GI50 (HOP-62): > 100 µM (inactive)
GI50 (BT-549): > 100 µM (inactive)
GI50 (786-0): > 100 µM (inactive)
GI50 (KM12): > 100 µM (inactive)

Cc1cc(=O)oc2cc(SC(=O)N(C)C)ccc12
GI50 (MCF7): > 100 µM (inactive)
GI50 (NCI-H522): > 100 µM (inactive)
GI50 (HT-29): > 100 µM (inactive)
GI50 (OVCAR-4): > 100 µM (inactive)
GI50 (MDA-N): > 100 µM (inactive)
GI50 (MDA-MB-435): > 100 µM (inactive)
GI50 (SNB-19): > 100 µM (inactive)
GI50 (SK-OV-3): > 100 µM (inactive)
GI50 (OVCAR-3): > 100 µM (inactive)
GI50 (CAKI-1): > 100 µM (inactive)
GI50 (OVCAR-5): 77.8 µM (inactive)
GI50 (NCI-H226): > 100 µM (inactive)
GI50 (SF-539): > 100 µM (inactive)
GI50 (OVCAR-8): > 100 µM (inactive)
GI50 (SK-MEL-2): > 100 µM (inactive)
GI50 (HOP-62): > 100 µM (inactive)
GI50 (BT-549): > 100 µM (inactive)
GI50 (786-0): > 100 µM (inactive)
GI50 (KM12): > 100 µM (inactive)
